US20250369032A1 (priority 2023, published 2025)
Several values for one entry are separate records, joined by “and”; a condition that tells them apart may be missing. Identical values can stand only once. Like-named read-outs stand apart in the source and are kept apart here.

Assays:
alkaline phosphatase [1] = biological target: T1, alkaline phosphatase (Bos taurus, UniProt P19111); test: Solvent screen, visual colour change in PNPP; details: 200 μL of the solvent into 2 mL of PNPP; 1-hour
Description: The results were not quantified with the spectrophotometer but the color change was visually observed. […] Two different dosing concentrations were evaluated, 10 μL of test chemical added to 90 μL of alkaline phosphatase reaction reagent and 50 μL of test chemical added to 50 μL of alkaline phosphatase reaction reagent; all aliquoted in 96-well plates.

alkaline phosphatase [2] = biological target: T1, alkaline phosphatase; assay type: biochemical; parameters: purchased Sigma Aldrich, St. Louis, MO P0114 (original source); P7640 (second source, 'new AP' condition only); details: for A1-Results R1 / A1-Results R3 / OD405 readings (FIG. 11B) / A1-Results AVG: 1:100; for A1-Results R1 / A1-Results R3 / A1-Results AVG: 20 μL into 180 μL, 4 hours RT, PNPP 60 min, 405 nm; for A1-Results R1 / A1-Results R3: 0.5 mL microcentrifuge tubes; for OD405 readings (FIG. 11B): 4 mL glass vials, 30 μL into 300 μL, 4 hours room temperature, 3 mL PNPP 1 hour; for A1-Results AVG: average of R1-R3; for prediction based on OD405 values (FIG. 6B): original alkaline phosphatase 1:1; for prediction based on OD405 values (FIG. 6B) / OD405 readings (FIG. 6D): 18 hours room temperature; for OD405 readings (FIG. 6D): original alkaline phosphatase 1:100 (100 units), 100 μL into 1 mL, PNPP 1 hour
skin = details: cited from earlier work
alkaline phosphatase [3] = biological target: T1, alkaline phosphatase; details: for OD405 readings (FIG. 11D): 4 mL glass vials, 30 μL into 300 μL, 1:100, 4 hours room temperature, 3 mL PNPP 1 hour
Description: Two different dosing concentrations were evaluated, 10 μL of test chemical added to 90 μL of alkaline phosphatase reaction reagent and 50 μL of test chemical added to 50 μL of alkaline phosphatase reaction reagent; all aliquoted in 96-well plates.
• 1. Alkaline phosphatase reaction reagent (fresh, 1:100) • a. Take 4 mL of AP (1:10) stock solution, add to 36 mL PBS. Vortex mix and then invert to mix 10 times • 2. Prepare alkaline phosphatase reaction reagent for every condition • a. 200 μL AP (1:10) in 1.8 mL PBS • b. […] 200 μL AP (1:10) in 1.8 mL Acetone • 3. Prepare 96-well plates for dosing • 4. Prepare 96-well plates for PNPP reading (3 wells for each test chemical) • a. Aliquot with 200 μL PNPP
• 1. Set 1 • a. 10 μL chemical added to 90 μL AP reaction reagent • 2. Set 2 • a. 50 μL chemical added to 50 μL AP reaction reagent • 3. Incubate for 3 hours • a. To the prepared 96-well plate with 200 μL PNPP aliquoted, add 20 μL • b. […] To the prepared 96-well plate with 200 μL PNPP aliquoted, add 20 μL • b.
In our next study, we focused on ethanol and buffered saline (potassium chloride, potassium phosphate monobasic, sodium chloride, sodium phosphate dibasic) as our solvents.
• 1. Alkaline phosphatase reaction reagent • a. 1:100 • i. PBS: Take 400 μL of AP (1:10) stock solution, add to 3.6 mL PBS. Vortex mix and then invert to mix 10 times • ii. […] Vortex mix and then invert to mix 10 times • b. 1:1000 • i. PBS: Take 400 μL of AP (1:100) stock solution, add to 3.6 mL PBS. Vortex mix and then invert to mix 10 times • ii. […] Vortex mix and then invert to mix 10 times • 2. Prepare 0.5 mL microcentrifuge tubes for dosing • a. One set for room temperature, one set for 37° C. • 3. Prepare 96-well plates for PNPP reading (3 wells for each test chemical) • a. Aliquot with 200 μL PNPP
• 1. In each microcentrifuge tube for each condition, add 180 μL of the corresponding AP reaction reagent • 2. Add 20 μL of the test chemical to each microcentrifuge tube • 3. Incubate for 4 hours (one set at room temperature; one set at 37° C.) • 4. To prepared 96-well plates with 200 μL PNPP aliquoted, add 20 μL of each microcentrifuge tube to the corresponding well • 5.

[4] = skin, chemical lists of the protocols

T1 sequence (P19111 20-506): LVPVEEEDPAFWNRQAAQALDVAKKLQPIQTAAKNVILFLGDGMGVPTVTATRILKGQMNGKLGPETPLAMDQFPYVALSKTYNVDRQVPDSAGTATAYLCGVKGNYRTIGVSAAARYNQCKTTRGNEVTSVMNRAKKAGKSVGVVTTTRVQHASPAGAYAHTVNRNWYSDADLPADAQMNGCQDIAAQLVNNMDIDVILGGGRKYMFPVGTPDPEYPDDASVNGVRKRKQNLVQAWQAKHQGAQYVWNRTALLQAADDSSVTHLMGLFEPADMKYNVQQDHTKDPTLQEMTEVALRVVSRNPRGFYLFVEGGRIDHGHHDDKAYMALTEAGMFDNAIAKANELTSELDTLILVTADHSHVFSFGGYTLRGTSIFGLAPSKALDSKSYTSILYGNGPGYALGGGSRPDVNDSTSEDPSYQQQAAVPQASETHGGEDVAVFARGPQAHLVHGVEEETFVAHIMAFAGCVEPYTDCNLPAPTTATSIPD

SMILES	color change visually observed (alkaline phosphatase [1])	A1-Results R1 (alkaline phosphatase [2])	A1-Results R3 (alkaline phosphatase [2])	A1-Results AVG (alkaline phosphatase [2])	further results
CC(C)=O [acetone]	brightest yellow intensity				
CCCCCCCC(=O)O [Octanoic Acid]		0.741	0.860	0.797	OD405 readings (FIG. 11B) (alkaline phosphatase [2]): 1.427 and 1.415 and 1.416; prediction based on OD405 values (FIG. 6B) (alkaline phosphatase [2]): incorrectly predicted; OD405 readings (FIG. 6D) (alkaline phosphatase [2]): 3.462 and 3.491 and 3.333; in vivo GHS (skin; rabbit, in vivo): Cat. 1B/1C; OD405 readings (FIG. 11D) (alkaline phosphatase [3]): 3.283 and 3.408 and 3.220
C[S+](C)[O-] [dimethyl sulfoxide]	no response (clear)				
CCCCCCCCC=O [Nonyl aldehyde]		3.393	3.050	3.296	in vivo GHS (skin; [4]): Cat. 2 (Category 2 (irritation; mean score of ≥2.3 and ≤4.0 for erythema/eschar or for oedema in at least 2 of 3 tested animals at 24, 48, and 72 hours or inflammation that persists to the end of 14 days)); OD405 reading (FIG. 7A) (alkaline phosphatase [3]): 1.589; OD405 reading (FIG. 7B) (alkaline phosphatase [3]): 3.078
CO [methanol]	lesser yellow intensity				
CC(C)N(C)C [Dimethylisopropylamine]		3.423	3.485	3.458	OD405 readings (FIG. 11B) (alkaline phosphatase [2]): 3.354 and 3.466 and 3.502; prediction based on OD405 values (FIG. 6B) (alkaline phosphatase [2]): incorrectly predicted; OD405 readings (FIG. 6D) (alkaline phosphatase [2]): 3.466 and 3.502; in vivo GHS (skin; [4]): Cat. 1B/1C; OD405 readings (FIG. 11D) (alkaline phosphatase [3]): 2.926 and 2.922 and 2.852
CCO [ethanol]	brightest yellow intensity				
